Data set [1] relates to HCMV pol promoter (pol-luc cells). The data set can be described thus: Luciferase reporter assay in pol-luc cells 48 hours after HCMV infection. Type of data set: cell-based. The settings on record: 48 hours after infection with 3 pfu/cell HCMV, increasing amounts of compound in DMSO. As for the experimental part: The Pol promoter sequence, from position -425 to +15, was amplified by PCR using cosmid pCM1058 (Peter Ghazal) as template. The primers are: 5'-[…]-3' (sense primer), and 5'-[…]-3' (antisense primer). These oligo primers introduced a HindIII restriction site at the 5' and 3' end of Pol promoter fragment. The HindIII digested PCR fragment was inserted into HindIII digested pGL2-basic luciferase reporter plasmid (Promega, Madison, Wis.). The promoter direction was determined and PCR fidelity of the promoter sequence was confirmed by sequencing.
(§1) B. Establishment of Stable Cell Lines
(§2) The HCMV permissive human glioblastoma cell line U373 MG was transfected with the constructs described above. […]
(§3) Cells were infected with HCMV (Towne strain, obtained from American Type Culture Collection, Rockville, Md.) at 5-10 pfu/cell. […] Plates were read immediately in a Packard TopCount™ (Packard, Hartford, Conn.). Clones showing high luciferase inducibility were further analyzed by PCR to ascertain the integrity of the reporter transcriptional unit integrated into the genomic DNA. […]
(§4) Cells are maintained in DMEM (Mediatech, Herndon, Va.) supplemented with 10% fetal bovine serum (Gemini Bioproducts, Inc., Calabasas, Calif.), 1% antimycotic/antibiotic (GIBCO, Baltimore, Md.) and 0.6 μg/mL G148 (GIBCO, Baltimore, Md.). […] Luciferase activity (luminescence) in each well is then measured using a Packard Topcount™. […]
(In general: Reporter assays use an easily measured gene product as a stand-in for the process of interest.)

Data set [2] relates to MIEP viral immediate early promoter (MIEP-luc cells). Briefly: Luciferase reporter assay in MIEP-luc cells 48 hours after HCMV infection. Type of data set: cell-based. The settings on record: 48 hours after infection with 3 pfu/cell HCMV, increasing amounts of compound in DMSO. As for the experimental part:
The MIEP promoter sequence, from position -1145 to +122, was amplified by PCR using plasmid pSE as a template. The primers are: 5'-[…]-3' (sense primer), and 5'[…]-3' (antisense primer). These oligo primers introduced a KpnI restriction site at the 5' and 3' end of MIEP promoter fragment. The KpnI digested PCR fragment was inserted into KpnI digested pGL2-basic luciferase reporter plasmid (Promega, Madison, Wis.). The promoter direction was determined and PCR fidelity of the promoter sequence was confirmed by sequencing.
as §1, §2, §3, §4

For data set [3], the system named is HCMV pp28 promoter (pp28-luc cells). The data set can be described thus: Luciferase reporter assay in pp28-luc cells 48 hours after HCMV infection. Type of data set: cell-based. The settings on record: 48 hours after infection with 3 pfu/cell HCMV, increasing amounts of compound in DMSO.
Description: The pp28 promoter sequence, from position -609 to +106, was amplified by PCR using cosmid pCM1 (Peter Ghazal, Scripps Research Institute) as a template. The oligonucleotide primer sequences are:
These oligonucleotides primers introduced a KpnI restriction site at the 5'-end and a HindIII site at the 3'-end of the pp28 promoter fragment. Unique sites, KpnI and HindIII allowed directional cloning into the pGL2-basic luciferase reporter plasmid (Promega, Madison, Wis.), resulting in the pp28-luc promoter construct shown in FIG. 2. The PCR fidelity of the pp28 promoter sequence was confirmed by sequencing.
B. Establishment of Stable Cell Lines […]
as §3, §4

The test system of data set [4] is β-actin cellular promoter (β-actin-luc cells). Briefly: Luciferase reporter assay in β-actin-luc cells 48 hours after HCMV infection. Type of data set: cell-based. As to conditions: 48 hours after infection with 3 pfu/cell HCMV, increasing amounts of compound in DMSO. On the procedure:
This Example illustrates the use of the cell lines of Example 1 for identifying inhibitors of viral gene expression.
Cells are maintained in DMEM (Mediatech, Herndon, Va.) supplemented with 10% fetal bovine serum (Gemini Bioproducts, Inc., Calabasas, Calif.), 1% antimycotic/antibiotic (GIBCO, Baltimore, Md.) and 0.6 μg/mL G148 (GIBCO, Baltimore, Md.). Cells are seeded at 3×10^4 cells per well in flat-bottom, tissue culture treated 96-well plates (Corning, Corning, N.Y.) and incubated for about 18 hours in a 37° C. humidified environment. Appropriately diluted candidate modulators are then added directly to the media on cells to a final concentration of 10 μg/mL, and the plates incubated for 30 minutes at 37° C. HCMV (Towne strain, ATCC) is then added at 3 pfu/cell. Forty-eight hours post-infection, the cells are washed once with PBS (without Ca^++ and Mg^++) and lysed in the 96-well plate. An aliquot of the cell lysate is then transferred to a black 96-well plate (Packard, Hartford, Conn.) and luciferase assay reagent (Promega, Madison, Wis.) is added to the plate. Luciferase activity (luminescence) in each well is then measured using a Packard Topcount™. […]
This Example illustrates anti-viral activity of representative compounds of this invention as determined in accordance with Examples 1-4 above. […]

Data set [5] deals with HCMV viral DNA replication. Briefly: Viral DNA replication determined by dot blot analysis in stable clones. Type of data set: cell-based, HCMV (Towne strain). As to conditions: in presence of PAA (200-400 μg/ml), three different stable clones, data not shown. As for the experimental part: The response of the integrated reporter plasmids to HCMV infection was also examined in the presence and absence of the well characterized viral DNA inhibitor phosphonoacetic acid (PAA, Sigma, St. Louis, Mo., 99.7 purity). The results are presented in FIG. 7 (P-luc), FIG. 8 (pol-luc) and FIG. 9 (pp28-luc). Cells were seeded into a 96 well plate in G418 selection media. The following day, cells were treated in the absence (lanes 1 and 4, panels B and C) or presence of PAA at 200 μg/mL (lanes 2 and 5, panels B and C) and 400 μg/mL (lanes 3 and 6, panels B and C). Cells were then superinfected with HCMV at 10 pfu/cell. Forty-eight hours post-infection, cells were harvested and isolated for either mRNA preparation, protein lysates or the luciferase assay. Luciferase activity measured as described above is shown in panels A of FIGS. 7-9. Northern analyses were performed on mRNA using probes for luciferase, MIEP-, pol- or pp28-specific mRNA and beta-actin mRNA to quantitate the amount of mRNA in each lane (panels B). Protein lysates were used for western blot analysis using antibody specific against luciferase (panels C). […] Viral DNA replication in presence of PAA was inhibited by nearly 90 percent as determined by dot blot analysis in three different stable clones (data not shown). […]

The test system of data set [6] is U373 MG cells. Type of data set: cell-based, human. As to conditions: PAA 200-400 μg/ml, MTS cytotoxicity assay, data not shown.

Turning to `COc1cc([N+](=O)[O-])ccc1NC(=O)c1cc(Cl)c2ccccc2c1O` [compound (V)], the “inhibition of luciferase reporter expressed from the HCMV pol promoter” value in data set [1] is “specific inhibition”. For the same compound, the “inhibition of reporter gene expressed from the MIEP viral immediate early promoter” value in data set [2] is “no inhibition”. In addition, the “inhibition of luciferase reporter expressed from the HCMV pp28 promoter” value in data set [3] is recorded as “specific inhibition”. The “inhibition of reporter gene expressed from the β-actin cellular promoter” value in data set [4] is “no inhibition”.

On to `O=C(O)CP(=O)(O)O` [PAA, phosphonoacetic acid], for which the “inhibition of viral DNA replication” value in data set [5] is ~90%. Also, in data set [6], the “toxicity to U373 MG cells” value was “not toxic”.

With `O=C(Nc1cccc([N+](=O)[O-])c1)c1cc(Cl)c2ccccc2c1O` [compound (IV)], the “inhibition of luciferase reporter expressed from the HCMV pol promoter” value in data set [1] is reported as “specific inhibition”. Also, the “inhibition of reporter gene expressed from the MIEP viral immediate early promoter” value in data set [2] is reported as “no inhibition”. The “inhibition of luciferase reporter expressed from the HCMV pp28 promoter” value in data set [3] is recorded as “specific inhibition”. Also, in data set [4], the “inhibition of reporter gene expressed from the β-actin cellular promoter” value is on record as “no inhibition”.
